Data reported in ChEMBL document CHEMBL4819002, “Design, synthesis, evaluation, and SAR of 4-phenylindoline derivatives, a novel class of small-molecule inhibitors of the programmed cell death-1/ programmed cell death-ligand 1 (PD-1/PD-L1) interaction” (Eur J Med Chem, 2021).
Activity calls are given as the source filed them. The rule behind the calls is not given here.

Key:
[1] = biological target: T1, Programmed cell death protein 1/Programmed cell death 1 ligand 1 (Homo sapiens, UniProt Q9NZQ7); test: Inhibition of PD1 (unknown origin)/PDL1 (unknown origin) protein-protein interaction by HTRF assay; type: protein-complex assay
[2] = biological target: T2, Programmed cell death protein 1/Programmed cell death 1 ligand 1 (Homo sapiens) (UniProt Q15116+Q9NZQ7); test: Inhibition of PD-1/PD-L1 interaction in CHO cells expressing PD-Ll/TCR cocultured with human Jurkat cells expressing PD-1 assessed as maximum relative luminescence intensity value incubated for 6 hrs by luciferase reporter gene assay; type: cell-based
[3] = Cytotoxicity against CHO cells expressing PD-Ll /TCR cocultured with human Jurkat cells expressing PD-1 measured after 24 hrs by Cell Titer-Glo based luminescent cell viability assay; type: functional
[4] = biological target: T1, Programmed cell death protein 1/Programmed cell death 1 ligand 1; test: Inhibition of PD-1/PD-L1 interaction in CHO cells expressing PD-Ll/TCR cocultured with human Jurkat cells expressing PD-1 assessed as activation of effector Jurkat T cells incubated for 6 hrs by luciferase reporter gene assay; type: cell-based
[5] = biological target: T2, Programmed cell death protein 1/Programmed cell death 1 ligand 1 (Homo sapiens); test: Inhibition of PD-1/PD-L1 interaction in CHO cells expressing PD-Ll/TCR cocultured with human Jurkat cells expressing PD-1 assessed as maximum relative luminescence intensity value upto 10 uM incubated for 6 hrs by luciferase reporter gene assay; type: cell-based; settings: dose microM <=10, time 6.0 hrs
[6] = biological target: T2, Programmed cell death protein 1/Programmed cell death 1 ligand 1 (Homo sapiens); test: Inhibition of PD-1/PD-L1 interaction in CHO cells expressing PD-Ll/TCR cocultured with human Jurkat cells expressing PD-1 assessed as maximum relative luminescence intensity value at > 3.3 uM incubated for 6 hrs by luciferase reporter gene assay; type: cell-based; settings: dose microM >3.3, time 6.0 hrs

T1 sequence (Q15116 whole entry): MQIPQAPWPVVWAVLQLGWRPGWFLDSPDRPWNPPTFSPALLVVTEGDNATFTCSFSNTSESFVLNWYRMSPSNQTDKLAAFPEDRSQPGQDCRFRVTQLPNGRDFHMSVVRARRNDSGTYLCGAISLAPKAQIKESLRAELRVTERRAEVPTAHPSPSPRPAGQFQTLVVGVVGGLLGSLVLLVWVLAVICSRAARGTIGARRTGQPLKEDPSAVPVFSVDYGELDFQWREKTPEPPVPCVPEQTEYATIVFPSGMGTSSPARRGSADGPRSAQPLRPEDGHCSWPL
T1 sequence (Q9NZQ7 whole entry): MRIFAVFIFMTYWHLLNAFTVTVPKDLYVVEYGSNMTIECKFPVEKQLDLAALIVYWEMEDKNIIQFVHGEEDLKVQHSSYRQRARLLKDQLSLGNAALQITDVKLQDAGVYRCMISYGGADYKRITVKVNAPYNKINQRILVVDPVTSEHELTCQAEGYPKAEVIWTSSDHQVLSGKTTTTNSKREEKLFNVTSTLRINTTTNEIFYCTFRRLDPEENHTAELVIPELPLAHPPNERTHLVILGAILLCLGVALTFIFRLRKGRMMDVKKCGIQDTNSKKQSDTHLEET

Row | Structure (SMILES) | IC50 [1] [nM] | also measured
1 | CC(=O)NCCNCc1cc(Cl)c(OCc2cccc(-c3cccc4c3CCN4CCCN3CCCC3)c2C)cc1OCc1cccc(C#N)c1 | 77 | 
2 | CC(=O)NCCNCc1cc(Cl)c(OCc2cccc(-c3cccc4c3CCN4CCCN3CCC3)c2C)cc1OCc1cccc(C#N)c1 | 98 | 
3 | CCCN1CCc2c(-c3cccc(COc4cc(OCc5cccc(C#N)c5)c(CNCCNC(C)=O)cc4Cl)c3C)cccc21 | 1730 | 
4 | CC(=O)NCCNCc1cc(Cl)c(OCc2cccc(-c3cccc4c3CCN4CCCN3CCC(O)CC3)c2C)cc1OCc1ccccc1 | 446 | 
5 | CCN1CCc2c(-c3cccc(COc4cc(OCc5cccc(C#N)c5)c(CNCCNC(C)=O)cc4Cl)c3C)cccc21 | 743 | 
6 | CC(=O)NCCNCc1cc(Cl)c(OCc2cccc(-c3cccc4c3CCN4)c2C)cc1OCc1cccc(C#N)c1 | 1360 | 
7 | CC(=O)NCCNCc1cc(Cl)c(OCc2cccc(-c3cccc4c3CCN4CCCN3CCC(F)C3)c2C)cc1OCc1cccc(C#N)c1 (stereo unspecified) | 202 | 
8 | CC(=O)NCCNCc1cc(Cl)c(OCc2cccc(-c3cccc4c3CCN4CCN3CCC(O)CC3)c2C)cc1OCc1cccc(C#N)c1 | 322 | 
9 | CC(=O)NCCNCc1cc(Cl)c(OCc2cccc(-c3cccc4c3CCN4CCCN3CCC(O)C3)c2C)cc1OCc1cccc(C#N)c1 (stereo unspecified) | 63 | 
10 | CC(=O)NCCNCc1cc(Cl)c(OCc2cccc(-c3cccc4c3CCN4CCCN3CCC(O)CC3)c2C)cc1OCc1cccc(C#N)c1 | 58 | 
11 | Cc1c(COc2cc(OCc3cncc(C#N)c3)c(CNC(CO)CO)cc2Cl)cccc1-c1cccc2c1CCN2CCCN1CCC(O)CC1 | 38 | 
12 | CC(=O)NCCNCc1cc(Cl)c(OCc2cccc(-c3cccc4c3CCN4CCCn3cccc3)c2C)cc1OCc1cccc(C#N)c1 | 2470 | 
13 | CC(=O)NCCNCc1cc(Cl)c(OCc2cccc(-c3cccc4c3CCN4CCCN3CCC(O)CC3)c2C)cc1OCC1CCCCC1 | 1130 | 
14 | Cc1c(COc2cc(OCc3cncc(C#N)c3)c(CN[C@@H](CO)C(=O)O)cc2Cl)cccc1-c1cccc2c1CCN2CCCN1CCC(O)CC1 | 12 | Activity [2]: Dose-Dependent Effect; GI50 [3]: > 20000 nM; EC50 [4]: 2900 nM; RLU [5]: 1710
15 | COC(=O)[C@H](CO)NCc1cc(Cl)c(OCc2cccc(-c3cccc4c3CCN4CCCN3CCC(O)CC3)c2C)cc1OCc1cncc(C#N)c1 | 41 | 
16 | CC(=O)NCCNCc1cc(Cl)c(OCc2cccc(-c3cccc4c3CCN4CCCN3CCC(F)CC3)c2C)cc1OCc1cccc(C#N)c1 | 878 | 
17 | CC(=O)NCCNCc1cc(Cl)c(OCc2cccc(-c3ccc4c(c3)OCCO4)c2C)cc1OCc1cccc(C#N)c1 | 40 | GI50 [3]: 6300 nM; Activity [6]: inactive; EC50 [4]: > 3300 nM
18 | COCCCN1CCc2c(-c3cccc(COc4cc(OCc5cccc(C#N)c5)c(CNCCNC(C)=O)cc4Cl)c3C)cccc21 | 905 | 
19 | CC(=O)NCCNCc1cc(Cl)c(OCc2cccc(-c3cccc4c3CCN4CCCN3CCC(O)CC3)c2C)cc1OCc1cccnc1 | 79 | 
20 | CC(=O)NCCNCc1cc(Cl)c(OCc2cccc(-c3cccc4c3CCN4CCCN3CCCCC3)c2C)cc1OCc1cccc(C#N)c1 | 197 | 
21 | CC(=O)NCCNCc1cc(Cl)c(OCc2cccc(-c3cccc4c3CCN4CCCN3CCOCC3)c2C)cc1OCc1cccc(C#N)c1 | 185 | 
22 | CCN(CC)CCCN1CCc2c(-c3cccc(COc4cc(OCc5cccc(C#N)c5)c(CNCCNC(C)=O)cc4Cl)c3C)cccc21 | 114 | 
23 | CC(=O)NCCNCc1cc(Cl)c(OCc2cccc(-c3cccc4c3CCN4CCCN3CCC(O)CC3)c2C)cc1OCc1cncc(C#N)c1 | 17 | Activity [2]: Dose-Dependent Effect; GI50 [3]: 16900 nM; EC50 [4]: 430 nM; RLU [5]: 1910
24 | Cc1c(COc2cc(OCc3cncc(C#N)c3)c(CNCCO)cc2Cl)cccc1-c1cccc2c1CCN2CCCN1CCC(O)CC1 | 31 | 
25 | CC(=O)NCCNCc1cc(Cl)c(OCc2cccc(-c3cccc4c3CCN4C)c2C)cc1OCc1cccc(C#N)c1 | 878 | 
